Results from US20240122906A1, “METHODS OF TREATING MELANOMA WITH RIPRETINIB” (Deciphera Pharmaceuticals, LLC, priority 2021, published 2024).

Legend:
[1] = Coadministration of ripretinib with a strong CYP3A inhibitor (itraconazole): exposure; format: in vivo; details: coadministration of ripretinib with itraconazole (strong CYP3A inhibitor and P-gp inhibitor)
[2] = Coadministration of ripretinib with a proton-pump inhibitor (pantoprazole): exposure; format: in vivo; details: for differences in plasma exposure: ripretinib coadministered with pantoprazole
Protocol: The effect of a proton-pump inhibitor on the exposure of ripretinib was evaluated.

[3] = Food effect (high-fat meal) on ripretinib and Compound A exposure; format: in vivo; details: for AUC0-24h higher by / Cmax higher by: ripretinib 150 mg dose with a high-fat meal
Protocol: The effect of a high-fat breakfast on ripretinib and Compound A exposure was evaluated. A high fat meal consisted of approximately 150, 250, and 500-600 calories from protein, carbohydrate, and fat, respectively. […] Therefore, ripretinib may be taken with or without food at approximately same time each day.

patients with melanoma = test: Phase 1 study of treating melanoma with ripretinib (efficacy, RECIST 1.1); format: in vivo, human
Protocol: This is a Phase 1 study to evaluate the efficacy of ripretinib in treating patients with melanoma. An efficacy cohort of 26 patients were enrolled. Each patient was administered 150 mg of ripretinib daily in repeated 28-day cycles until disease progression, unacceptable toxicity, or consent withdrawal. Patients who had disease progression at ripretinib 150 mg QD were allowed to escalate to 150 mg twice daily (BID) after the completion of Cycle 2. The efficacy endpoints includes Objective Response Rate (ORR), Disease Control Rate (DCR), Duration of Response (DOR) Time to Best Response (TBR), and progression-free survival (PFS) as determined by radiologic review using Response Evaluation Criteria in Solid Tumors (RECIST 1.1).
Prior tyrosine kinase inhibitor (TKI) treatment analysis. […] 17 of the 25 members of the cohort received no prior TKI and, among these members, the mPFS was determined to be 10.2 months and the ORR was determined to be 29.4% (5 out of 17 members). 8 of the 25 members received TKI treatment prior to receiving ripretinib and, among these members, the mPFS was determined to be 2.9 months and the ORR was determined to be 11% (1 out of […] members).
Mutational Analysis. An analysis of the efficacy of ripretinib based on baseline mutations of melanoma among the efficacy cohort was performed. […] L576P (Exon 11), K642E (Exon 13) and N822K/Y (Exon 17) were determined to be the most prevalent baseline mutations in this cohort.

Solubility = format: physicochemical
[4] = investigator assessment, Total (N = 26)
[5] = investigator assessment, Total, n 6

Structure (SMILES): CCn1c(=O)c(-c2cc(NC(=O)Nc3ccccc3)c(F)cc2Br)cc2cnc(N)cc21 [Compound A]
- increase in AUC0-inf [1]: 99%
- increase in Cmax [1]: no change
- differences in plasma exposure [2]: No clinically significant differences
- AUC0-24h higher by [3]: 47%
- Cmax higher by [3]: 66%

Structure (SMILES): CCn1c(=O)c(-c2cc(NC(=O)Nc3ccccc3)c(F)cc2Br)cc2cnc(NC)cc21 [ripretinib]
- median PFS (patients with melanoma; 150 mg daily, 28-day cycles, whole efficacy cohort): 7.3 months
- confirmed ORR (patients with melanoma; Exon 11 patients): 44%
- median PFS (patients with melanoma; Exon 11 patients): 10.2 months
- median duration of response (patients with melanoma; Exon 11 patients): 10.5 months
- median time to confirmed response (patients with melanoma; Exon 11 patients): 1.9 months
- confirmed ORR (patients with melanoma; Exon 17 patients): 18%
- median PFS (patients with melanoma; Exon 17 patients): 13.6 months
- median duration of response (patients with melanoma; Exon 17 patients): 8.1 months
- median time to confirmed response (patients with melanoma; Exon 17 patients): 1.7 months
- Confirmed Partial Response, % (patients with melanoma; KIT Exon 11 (N = 9)): (44.4) %
- No Response Assessment, % (patients with melanoma; KIT Exon 11 (N = 9)): (11.1) %
- Progressive Disease, % (patients with melanoma; KIT Exon 11 (N = 9)): (11.1) %
- Stable Disease (≥6 wks), % (patients with melanoma; KIT Exon 11 (N = 9)): (33.3) %
- Progressive Disease, % (patients with melanoma; KIT Exon 13 (N = 4)): (50.0) %
- Stable Disease (≥6 wks), % (patients with melanoma; KIT Exon 13 (N = 4)): (50.0) %
- Confirmed Complete Response, % (patients with melanoma; KIT Exon 17 (N = 11)): (9.1) %
- Confirmed Partial Response, % (patients with melanoma; KIT Exon 17 (N = 11)): (9.1) %
- Progressive Disease, % (patients with melanoma; KIT Exon 17 (N = 11)): (36) %
- Stable Disease (≥6 wks), % (patients with melanoma; KIT Exon 17 (N = 11)): (45.5) %
- Progressive Disease, % (patients with melanoma; KIT Exon 18 (N = 1)): 100.0%
- Stable Disease (≥6 wks), % (patients with melanoma; KIT Exon Amplification (N = 1)): 100.0%
- Objective Response Rate, % (patients with melanoma; investigator assessment, Total): (23.1) %
- Time to Response, Median (patients with melanoma; investigator assessment, Total): 1.9 Months
- Best Overall Response: Confirmed Complete Response, % (patients with melanoma; [4]): (3.8) %
- Best Overall Response: Confirmed Partial Response, % (patients with melanoma; [4]): (19.2) %
- Best Overall Response: No Response Assessment, % (patients with melanoma; [4]): (4) %
- Best Overall Response: Progressive Disease, % (patients with melanoma; [4]): (31) %
- Best Overall Response: Stable Disease (≥6 weeks duration), % (patients with melanoma; [4]): (42.3) %
- Duration of Response, Max (patients with melanoma; [5]): 28.6 Months
- Duration of Response, Mean (patients with melanoma; [5]): 10.5 Months
- Duration of Response, Median (patients with melanoma; [5]): 9.1 Months
- Duration of Response, Min (patients with melanoma; [5]): 4.1 Months
- mPFS (patients with melanoma; no prior TKI treatment): 10.2 months
- ORR (patients with melanoma; no prior TKI treatment (5 out of 17)): 29.4%
- mPFS (patients with melanoma; prior TKI treatment): 2.9 months
- ORR (patients with melanoma; prior TKI treatment (1 out of 9)): 11%
- confirmed ORR (patients with melanoma; radiologic review using RECIST version 1.1, whole cohort (6 out of 26)): 23.1%
- confirmed and unconfirmed ORR (patients with melanoma; whole cohort): 30.8%
- median DOR (mDOR) (patients with melanoma; whole cohort): 9.1 months
- increase in AUC0-inf [1]: 99%
- increase in Cmax [1]: 36%
- solubility (Solubility): pH-dependent solubility
- effect on ripretinib exposure ([2]; 40 mg QD pantoprazole with 150 mg QD ripretinib): did not affect ripretinib exposure
- differences in plasma exposure [2]: No clinically significant differences
- food effect, clinical significance ([3]; based on exposure-response analysis): not considered to be clinically significant
- AUC0-24h higher by [3]: 30%
- Cmax higher by [3]: 22%
